Measurements reported in patent US7183061B2, “Method of expressing Heliothis ecdysone receptor fusion protein” (Syngenta Limited, priority 1996, dated 2007).

What was measured:
[1] = target: chimeric glucocorticoid VP16/Heliothis ecdysone receptor (UniProt O18473+P04150, DEL153-392/E478D/INS403[…]/INS405[…]/M398P/P396A/P400T/P406S/R399P/S397A/Y393A); experiment: GUS levels in transgenic tobacco progeny containing pES3 and pES4; assay type: in vivo, Heliothis virescens; parameters: expressed in transfected cells; stably transformed tobacco plants, pES3/pES4 (A11)
Text: The methodology described below was used to produce four different stable Tobacco vectors. The method involves three steps: • 1. pbluescript SK HindIII/EcoRI vector was ligated to either GRE6-4635SCaMVGUSNOS HindIII/EcoRI (from p221.10GRE6) or GRE6-6035SCaMVGUSNOS HindIII/EcoRI (from p221.9GRE6) resulting in plasmid pSK-46 and pSK-60. • 2. This step involves the addition of the chimeric receptor (35SGRHEcRNOS or 35SGRVP16HEcRNOS) to pSK-60 or pSK-46. Thus a pSK-60 (or pSK-46) XbaI vector was ligated with either the 3.4 kb 35SGRHEcRNOS XbaI or the 3.0 kb 35SGRVP16HEcRNOS XbaI DNA fragment to produce pSKES1 (pSKGRE6-6035SCaMVGUSNOS-35SGRHEcRNOS), pSKES2 (pSKGRE6-4635 SCaMVGUSNOS-35 SGRHEcRNOS), pSKES3 (pSKGRE6-6035SCaMVGUSNOS-35SGRVP16HEcRNOS) and pSKES4 (pSKGRE6-4635SCaMVGUSNOS-35SGRVP16HEcRNOS). • 3. Transfer from pBluescript based vectors to binary vectors. […] The DNA of the recombinant was characterised by restriction mapping and the sequence of the junctions determined. […]

Spodoptera exigua = conditions: compared with Heliothis; cited from earlier work

chimeric glucocorticoid VP16/Heliothis ecdysone receptor, sequence (P04150+O18473 fused with the stated changes): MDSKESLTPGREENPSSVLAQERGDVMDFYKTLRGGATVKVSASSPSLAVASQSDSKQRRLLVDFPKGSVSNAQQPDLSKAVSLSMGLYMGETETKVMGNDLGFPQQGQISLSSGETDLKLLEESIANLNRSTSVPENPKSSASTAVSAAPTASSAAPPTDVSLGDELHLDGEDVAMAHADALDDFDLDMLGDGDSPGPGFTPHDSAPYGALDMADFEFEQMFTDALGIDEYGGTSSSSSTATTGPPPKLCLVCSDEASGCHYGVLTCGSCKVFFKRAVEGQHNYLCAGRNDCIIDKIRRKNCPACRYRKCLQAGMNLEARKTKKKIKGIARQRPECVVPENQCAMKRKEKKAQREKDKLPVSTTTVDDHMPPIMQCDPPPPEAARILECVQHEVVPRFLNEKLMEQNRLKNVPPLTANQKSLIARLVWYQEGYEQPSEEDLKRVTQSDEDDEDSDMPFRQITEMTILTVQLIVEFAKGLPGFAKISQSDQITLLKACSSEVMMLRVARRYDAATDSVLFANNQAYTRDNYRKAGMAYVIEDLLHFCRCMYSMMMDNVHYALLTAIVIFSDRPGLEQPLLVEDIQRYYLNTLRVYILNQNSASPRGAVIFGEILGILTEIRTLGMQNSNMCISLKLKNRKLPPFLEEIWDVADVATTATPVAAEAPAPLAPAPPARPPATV

## CCc1ccc(C(=O)NN(C(=O)c2cc(C)cc(C)c2)C(C)(C)C)cc1 [RH5992, 3,5-dimethylbenzoic acid 1-1(1,1-dimethylethyl)-2(4-ethylbenzoyl)hydrazide]
[1]
  GUS levels relative to transgenic plants containing non-VP16 vectors pES1 and pES2: elevated GUS levels
Spodoptera exigua
  sensitivity of species: more sensitive to RH5992 than Heliothis
